Reference: ChEMBL document CHEMBL6120994, “Unravelling the potential of natural chelating agents in the control of Staphylococcus aureus and Pseudomonas aeruginosa biofilms” (Eur J Med Chem, 2025)
Calls of active or inactive are those of the source. No cut-off for these calls is given here.

Key:
Staphylococcus aureus [1] = assay: Inhibition of virulence production in Staphylococcus aureus CECT 976 biofilms assessed as diameter of siderophores halo at 1/2XMTC measured after 48 hrs in presence of 1/8XMIC tobramycin (reference value: 10.5 +/-0.6 mm); assay type: functional
Pseudomonas aeruginosa [2] = assay: Antibacterial activity against Pseudomonas aeruginosa ATCC 10145 assessed as inhibition of bacterial growth incubated for 24 hrs by broth microdilution method; assay type: functional
Staphylococcus aureus [3] = assay: Antibiotic adjuvant activity against Staphylococcus aureus CECT 976 assessed as potentiation of tobramycin-induced antibacterial activity by measuring fractional inhibitory concentration index (MBC) at 62.5 ug/ml measured after 24 hrs by checkerboard assay; assay type: functional; details: dose 62.5 µg/ml
Staphylococcus aureus [4] = assay: Inhibition of virulence production in pre-established 24 hr-old Staphylococcus aureus CECT 976 biofilms assessed as diameter of gelatinases halo at 10XMTC measured after 48 hrs in presence of 1/2XMIC tobramycin (reference value: 9.3 to 9.5 mm); assay type: functional
[5] = Cytotoxicity against human HepG2 cells assessed as metabolic activity by measuring resazurin reduction at 93.5 to 1000 ug/ml measured after 24 hrs by resazurin reduction method; assay type: toxicity, cell-based; details: at 93.5 to 1000 µg/mL, dose 93.5-1000 µg/ml, read-out: Activity
Cell membrane [6] = assay: Disruption of membrane integrity in pre-established 24 hr-old Staphylococcus aureus CECT 976 assessed as PI uptake at 10000 ug/ml measured after 24 hrs in presence of 1/4XMIC to MIC tobramycin by PI staining based flow cytometry; assay type: subcellular; details: dose 10000.0 µg/ml
Staphylococcus aureus [7] = assay: Inhibition of virulence production in Staphylococcus aureus CECT 976 biofilms assessed as diameter of gelatinases halo at 1/2XMTC measured after 48 hrs in presence of 1/2XMIC tobramycin (reference value: 10 to 10.8 mm); assay type: functional
Staphylococcus aureus [8] = assay: Inhibition of virulence production in Staphylococcus aureus CECT 976 biofilms assessed as diameter of siderophores halo at 1/2XMTC measured after 48 hrs in presence of 1/2XMIC tobramycin (reference value: 10.5 +/-0.6 mm); assay type: functional
Cell membrane [9] = assay: Disruption of membrane integrity in pre-established 24 hr-old Staphylococcus aureus CECT 976 assessed as reduction in number of cells at 10XMTC measured after 24 hrs in presence of 1XMIC tobramycin by SYTO9/PI dye based epifluorescence microscopy
Staphylococcus aureus [10] = assay: Inhibition of virulence production in pre-established 24 hr-old Staphylococcus aureus CECT 976 biofilms assessed as diameter of lipases halo at 10XMTC measured after 48 hrs in presence of 1XMIC tobramycin (reference value: 11.8 to 12.3 mm); assay type: functional
Pseudomonas aeruginosa [11] = assay: Antibacterial activity against Pseudomonas aeruginosa ATCC 10145 assessed as inhibition of bacterial growth by measuring inhibition zone diameter at 100 ug/ml incubated for 24 hrs in presence of tetracycline by disc diffusion method (reference value: 2 mm); assay type: functional; details: read-out: DIZ
Staphylococcus aureus [12] = assay: Inhibition of virulence production in pre-established 24 hr-old Staphylococcus aureus CECT 976 biofilms assessed as diameter of lipases halo at 10XMTC measured after 48 hrs in presence of 1/4XMIC tobramycin (reference value: 11.5 +/-0.6 mm); assay type: functional
HepG2 = assay: Cytotoxicity against human HepG2 cells assessed as cell mass by measuring SRB binding at 93.5 to 1000 ug/ml measured after 24 hrs by SRB assay; assay type: toxicity, cell-based; details: hepg2, 24 h, at 93.5 to 1000 µg/mL, dose 93.5-1000 µg/ml
Staphylococcus aureus [13] = assay: Inhibition of virulence production in Staphylococcus aureus CECT 976 biofilms assessed as diameter of lipases halo at 1/2XMTC measured after 48 hrs in presence of 1/2XMIC tobramycin (reference value: 12.5 to 13.5 mm); assay type: functional
Pseudomonas aeruginosa [14] = assay: Antibiotic adjuvant activity against Pseudomonas aeruginosa ATCC 10145 assessed as potentiation of ciprofloxacin-induced antibiofilm activity by measuring reduction in biofilm cells culturability at 500 ug/ml measured after 24 hrs in presence of ciprofloxacin by visual counting method; assay type: functional, organism-based; details: dose 500.0 µg/ml
Pseudomonas aeruginosa [15] = assay: Antibiotic adjuvant activity against preestablished 24-hr old Pseudomonas aeruginosa ATCC 10145 assessed as potentiation of ciprofloxacin-induced antibiofilm activity by measuring reduction of CFU biofilm cells at 1000 ug/ml measured after 24 hrs in presence of 1/8XMIC ciprofloxacin by visual counting method; assay type: functional, organism-based; details: dose 1000.0 µg/ml
Staphylococcus aureus [16] = assay: Bactericidal activity against Staphylococcus aureus CECT 976 assessed as bacterial killing incubated in MHB for 24 hrs and measured following culturing on agar plate for 24 hrs; assay type: functional; details: time 48 hrs
Staphylococcus aureus [17] = assay: Inhibition of virulence production in pre-established 24 hr-old Staphylococcus aureus CECT 976 biofilms assessed as diameter of gelatinases halo at 10XMTC measured after 48 hrs in presence of 1/4XMIC tobramycin (reference value: 10 to 11.3 mm); assay type: functional
Staphylococcus aureus [18] = assay: Antibiofilm activity against Staphylococcus aureus CECT 976 assessed as reduction in metabolic activity of biofilm cells at 500 to 1000 ug/ml by resazurin staining based fluorescence analysis; assay type: functional; details: dose 500-1000 µg/ml; at 500 to 1000 µg/mL
Pseudomonas aeruginosa [19] = assay: Antibacterial activity against Pseudomonas aeruginosa ATCC 10145 assessed as inhibition of bacterial growth by measuring inhibition zone diameter at 100 ug/ml incubated for 24 hrs in presence of gentamicin by disc diffusion method (reference value: 8.25 +/-0.5 mm); assay type: functional; details: read-out: DIZ
Staphylococcus aureus [20] = assay: Antibiotic adjuvant activity against Staphylococcus aureus CECT 976 assessed as potentiation of tobramycin-induced antibacterial activity by measuring fractional inhibitory concentration index (MIC) at 62.5 ug/ml measured after 24 hrs by checkerboard assay; assay type: functional; details: dose 62.5 µg/ml
Staphylococcus aureus [21] = assay: Inhibition of virulence production in pre-established 24 hr-old Staphylococcus aureus CECT 976 biofilms assessed as diameter of lipases halo at 1XMTC measured after 48 hrs (reference value: 11.5 to 11.8 mm); assay type: functional
Staphylococcus aureus [22] = assay: Inhibition of virulence production in Staphylococcus aureus CECT 976 biofilms assessed as diameter of protease halo at 1/2XMTC measured after 72 hrs in presence of 1/4XMIC tobramycin (reference value: 11.5 to 12.3 mm); assay type: functional
Staphylococcus aureus [23] = assay: Inhibition of virulence production in Staphylococcus aureus CECT 976 biofilms assessed as diameter of lipases halo at 1/2XMTC measured after 48 hrs (reference value: 11.5 to 13.3 mm); assay type: functional
[24] = Metal chelating activity at iron(III) in chrome azurol sulphonate solution assessed as absorption spectra peak around […] incubated for 30 mins by spectrophotometric analysis
Staphylococcus aureus [25] = assay: Inhibition of virulence production in pre-established 24 hr-old Staphylococcus aureus CECT 976 biofilms assessed as diameter of gelatinases halo at 10XMTC measured after 48 hrs (reference value: 10.8 to 11 mm); assay type: functional
Staphylococcus aureus [26] = assay: Antibacterial activity against Staphylococcus aureus CECT 976 assessed as inhibition of bacterial growth by measuring inhibition zone diameter at 1000 ug/ml incubated for 24 hrs in presence of methicillin by disc diffusion method (reference value: 19.5 +/- 1.29 mm); assay type: functional; details: read-out: DIZ

SMILES	Activity (Staphylococcus aureus [1]) [mm]	MIC (Pseudomonas aeruginosa [2]) [µg/mL]	fractional inhibitory concentration index (FICI) (Staphylococcus aureus [3])	Activity (Staphylococcus aureus [4]) [mm]	viability at 24 h [5] [%]	Activity (Cell membrane [6]) [%]	Activity (Staphylococcus aureus [7]) [mm]	Activity (Staphylococcus aureus [8]) [mm]	Activity (Cell membrane [9])	Activity (Staphylococcus aureus [10]) [mm]	zone of inhibition at 100 µg/mL (Pseudomonas aeruginosa [11]) [mm]	Activity (Staphylococcus aureus [12]) [mm]	Activity (HepG2) [%]	Activity (Staphylococcus aureus [13]) [mm]	Activity (Pseudomonas aeruginosa [14])	Activity (Pseudomonas aeruginosa [15])	MBC (Staphylococcus aureus [16]) [µg/mL]	Activity (Staphylococcus aureus [17]) [mm]	inhibition (INH) (Staphylococcus aureus [18]) [%]	zone of inhibition at 100 µg/mL (Pseudomonas aeruginosa [19]) [mm]	further results
Cc1occc(=O)c1O [MALTOL]	10	> 1000	0.3	0	> 80	50	0	9.5	Active	2.3	3.5	2.3	> 90	2	inactive	inactive	> 1000	0	40	11.8	fractional inhibitory concentration index (FICI) (Staphylococcus aureus [20]): 0.3; Activity (Staphylococcus aureus [21]): 2.8 mm; Activity (Staphylococcus aureus [22]): 0 mm; Activity (Staphylococcus aureus [23]): 3.5 mm; Activity [24]: Active; Activity (Staphylococcus aureus [25]): 0 mm; zone of inhibition at 1000 µg/mL (Staphylococcus aureus [26]): 15.5 mm
O=c1cc(CO)occ1O [KOJIC ACID]	9	> 1000	0.3	0	> 80	50	0	9.75	Active	2	5	2.5	> 90	2.3	inactive	inactive	> 1000	0	40	12	fractional inhibitory concentration index (FICI) (Staphylococcus aureus [20]): 0.3; Activity (Staphylococcus aureus [21]): 2.3 mm; Activity (Staphylococcus aureus [22]): 0 mm; Activity (Staphylococcus aureus [23]): 2.8 mm; Activity [24]: Active; Activity (Staphylococcus aureus [25]): 0 mm; zone of inhibition at 1000 µg/mL (Staphylococcus aureus [26]): 16 mm
